Data set [1] deals with HCT-116. Briefly: Cytotoxicity against human HCT-116 cells assessed as cell viability at 5 uM. The data set is classed as functional, cell-based.
A further data set has as its system Bel-7402. Kind of data set: Anti-proliferative activity against human Bel-7402 cells incubated for 72 hrs by MTT assay. The data set is classed as functional, cell-based. The note with it: Bel-7402, 72 h. (In general: Tetrazolium dyes change colour on reduction, which living cells bring about.)
The nature of data set [2]: Selectivity index, ratio of IC50 for human L02 cells to IC50 for human A549 cells. The note with it: L02 cells versus A549 cells, read-out: Ratio IC50. In kind it is toxicity.
The test system of data set [3] is HCT-116. Kind of data set: Anti-proliferative activity against human HCT-116 cells incubated for 72 hrs by MTT assay. The data set is classed as functional, cell-based. The note with it: HCT-116, 72 h.
Data set [4] is described as follows: Selectivity index, ratio of IC50 for human L02 cells to IC50 for human Bel-7402 cells. In kind it is toxicity. The note with it: L02 cells versus Bel-7402 cells, read-out: Ratio IC50.
A further data set deals with A549. Kind of data set: Anti-proliferative activity against human A549 cells incubated for 72 hrs by MTT assay. In kind it is functional, cell-based. Conditions: A549, 72 h.
Data set [5] can be described thus: Selectivity index, ratio of IC50 for human L02 cells to IC50 for human HCT-116 cells. In kind it is toxicity. Conditions: L02 cells versus HCT-116 cells, read-out: Ratio IC50.
The nature of data set [6]: Selectivity index, ratio of IC50 for human L02 cells to IC50 for human SW620 cells. In kind it is toxicity. The note with it: L02 cells versus SW620 cells, read-out: Ratio IC50.
The next data set has as its system SW-620. Briefly: Anti-proliferative activity against human SW620 cells incubated for 72 hrs by MTT assay. In kind it is functional, cell-based. Conditions: SW-620, 72 h.
A short description of data set [7]: Anti-proliferative activity against human L02 cells incubated for 72 hrs by MTT assay. The data set is classed as toxicity, cell-based.
Data set [8] concerns HCT-116. Kind of data set: Cytotoxicity against human HCT-116 cells assessed as cell viability at 10 uM. The data set is classed as functional, cell-based.
Data set [9] has as its system HCT-116. Kind of data set: Cytotoxicity against human HCT-116 cells assessed as cell viability upto 20 uM. The data set is classed as functional, cell-based.
The subject of data set [10] is HCT-116. Briefly: Inhibition of cell proliferation in human HCT-116 cells at 3 uM incubated for 12 hrs by EdU assay (reference value: 48.14 %). The data set is classed as functional.

Calls of active or inactive are those of the source. The calls are words filed in the database; no cut-off is given here. Peptide text beside a SMILES is read from it. * marks the point of attachment. Cbz = O=C(OCc1ccccc1)*; CH2F = FC* A value given as a limit tells only on which side of the number the result lay.

By IC50 is commonly meant the concentration that inhibits the measured activity by half. A low value points to greater potency. Usually inhibition stands for the share of the control response that was lost under treatment.

In the case of `CC(=O)N(O)CCCCCNC(=O)CCC(=O)N(O)CCCCCNC(=O)CCC(=O)N(O)CCCCCN`, in the data set with HCT-116 [1], the result was inactive.

Consider `CCCNC(=O)OC1O[C@@H]2O[C@@]3(C)CC[C@@H]4[C@H](C)CC[C@@H]([C@H]1C)[C@@]24OO3` (stereo not given in full), for which the IC50 with Bel-7402, in the data set with HCT-116 [3], with A549 and in the data set on SW-620 was over 10 µM throughout. The selectivity ratio in [2] is 13.6; in data set [4], under 1.21; in data set [5], 25.8; in data set [6], 2.78. In data set [7], half-maximal inhibition (IC50 at 72 h) required 12.1 µM.

In the case of `COc1ccc(NC(=O)OC2O[C@@H]3O[C@@]4(C)CC[C@@H]5[C@H](C)CC[C@@H]([C@H]2C)[C@@]35OO4)cc1` (stereo not given in full), the half-inhibitory concentration (IC50) is 8.3 µM with Bel-7402, 0.92 µM in the data set with HCT-116 [3], 5.8 µM in the data set on A549 and 1.06 µM in the data set on SW-620. For the same compound, the selectivity ratio stood at 6.38 in data set [2], 4.46 in data set [4], 40.2 in data set [5] and 34.9 in data set [6]. Also, the midpoint of inhibition in data set [7], the IC50 at 72 h, lay at 37 µM.

On to `CCOC(=O)c1ccc(NC2CCCCC2)c(N)c1`, for which, in the data set on HCT-116 [8], the result was inactive.

For `C[C@@H]1CC[C@H]2[C@@H](C)C(OC(=O)Nc3ccccc3)O[C@@H]3O[C@@]4(C)CC[C@H]1[C@]32OO4` (stereo not given in full), the IC50 was found to be 4.62 µM with Bel-7402, 0.72 µM in the data set with HCT-116 [3], 4.18 µM in the data set on A549 and 1.34 µM in the data set on SW-620. Further, the selectivity ratio in [2] came to 3.2; in data set [4] it was 2.9; in data set [5], 18.6; in data set [6] it was 9.99. This compound also registered an IC50 at 72 h in data set [7] of 13.4 µM.

On to `C[C@@H]1CC[C@H]2[C@@H](C)C(OC(=O)Nc3ccc(F)cc3)O[C@@H]3O[C@@]4(C)CC[C@H]1[C@]32OO4` (stereo not given in full), for which the IC50 in the data set on Bel-7402 stood at 8.7 µM; in the data set on HCT-116 [3], 0.51 µM; in the data set with A549 it was 3.2 µM; in the data set on SW-620, 1.01 µM. Moreover, the selectivity ratio in data set [2] was 2.85; in data set [4], 1.05; in [5], 17.9; in [6], 9.04. In [7], 9.13 µM corresponded to half-maximal inhibition (IC50 at 72 h).

In the case of `CC(C)[C@H](NC(=O)OCc1ccccc1)C(=O)N[C@@H](C)C(=O)N[C@@H](CC(=O)O)C(=O)CF` (Cbz-Val-Ala-Asp-CH2F), the outcome in the data set with HCT-116 [9] was inactive.

Take `CCCCCCCNC(=O)OC1O[C@@H]2O[C@@]3(C)CC[C@@H]4[C@H](C)CC[C@@H]([C@H]1C)[C@@]24OO3` (stereo not given in full): the IC50 is over 10 µM with Bel-7402, 1.19 µM with HCT-116 [3], 8 µM in the data set on A549 and 3.9 µM with SW-620.

Take `C[C@H]1[C@@H](O)O[C@@H]2O[C@@]3(C)CC[C@H]4[C@H](C)CC[C@@H]1[C@@]24OO3` [ARTENIMOL]: the IC50 with Bel-7402 amounted to 43.2 µM; with HCT-116 [3], 5.1 µM; in the data set with A549 it was 19.4 µM; with SW-620, 6.61 µM. The selectivity ratio in data set [2] came out at 0.43; in data set [4], 0.2; in data set [5], 1.65; in [6], 1.28. Besides, in the data set with HCT-116 [10], the inhibition at 3 µM amounted to 24.5%. The compound further yielded an IC50 at 72 h in data set [7] of 8.43 µM.

Turning to `Cc1ccc(NC(=O)OC2O[C@@H]3O[C@@]4(C)CC[C@@H]5[C@H](C)CC[C@@H]([C@H]2C)[C@@]35OO4)cc1` (stereo not given in full), the IC50 worked out at 8.1 µM in the data set on Bel-7402, 0.59 µM with HCT-116 [3], 2 µM in the data set on A549 and 0.79 µM in the data set on SW-620. Besides, the selectivity ratio in data set [2] was 7.82; in [4], 1.93; in [5], 26.5; in [6], 19.8. For the same compound, half-maximal inhibition in [7] (IC50 at 72 h) required 15.6 µM.

For `C[C@@H]1CC[C@H]2[C@@H](C)C(OC(=O)c3ccc(Cn4ccc5ccc(F)cc54)cc3)O[C@@H]3O[C@@]4(C)CC[C@H]1[C@]32OO4` (stereo not given in full), the IC50 is over 10 µM in the data set with Bel-7402, 0.47 µM in the data set on HCT-116 [3], 0.89 µM in the data set on A549 and 4.36 µM in the data set with SW-620.

Turning to `C[C@@H]1CC[C@H]2[C@@H](C)C(OC(=O)CCC(=O)NCCc3c[nH]c4ccccc34)O[C@@H]3O[C@@]4(C)CC[C@H]1[C@]32OO4` (stereo not given in full), the IC50 was over 10 µM in the data set on Bel-7402, 6.74 µM with HCT-116 [3], over 10 µM in the data set with A549 and 1.81 µM in the data set with SW-620.

The values above are taken from ChEMBL document CHEMBL6087402, “Design, synthesis, and in vitro and in vivo biological evaluation of dihydroartemisinin derivatives as potent anti-cancer agents with ferroptosis-inducing and apoptosis-activating properties” (Eur J Med Chem, 2025).
